Experimental data reported in PubChem BioAssay (NCI).
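Cells were grown in 96-well plates and exposed to each compound for 48 hours at five concentrations; endpoints were interpolated linearly between bracketing concentrations, or set to the highest concentration if not reached. At the GI50, growth is halved. TGI: total growth inhibition.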

How the values were obtained:
Experiment in all cases: NCI anticancer screen, dose series, 48 h; in the data active = GI50 below about 0.43 µM; inactive = the rest
786-0 renal = tested on: 786-0 renal
SF-295 CNS = tested on: SF-295 CNS
SK-MEL-2 melanoma = tested on: SK-MEL-2 melanoma
PC-3 prostate = tested on: PC-3 prostate
MDA-MB-231 breast = tested on: MDA-MB-231 breast
TK-10 renal = tested on: TK-10 renal
NCI-H460 lung = tested on: NCI-H460 lung
DU-145 prostate = tested on: DU-145 prostate

Nc1nc(=S)c2ncn(C3OC(COP(=O)(O)O)C(O)C3O)c2[nH]1 (stereo not given)
active: GI50 (SF-295 CNS) 0.378 µM
> 100 µM: TGI (786-0 renal) | TGI (SF-295 CNS) | TGI (SK-MEL-2 melanoma) | TGI (PC-3 prostate) | TGI (MDA-MB-231 breast) | TGI (TK-10 renal) | TGI (DU-145 prostate)
10.9 µM: TGI (NCI-H460 lung)
inactive: GI50 (786-0 renal) 2.53 µM | GI50 (SK-MEL-2 melanoma) 3.89 µM | GI50 (PC-3 prostate) 3.44 µM | GI50 (MDA-MB-231 breast) 0.717 µM | GI50 (TK-10 renal) 1.89 µM | GI50 (NCI-H460 lung) 0.562 µM | GI50 (DU-145 prostate) 0.577 µM

CSc1nc2nc(-c3ccccc3)c(C)c-2c2n1C(C)C(=O)N2 (stereo not given)
> 100 µM: TGI (786-0 renal) | TGI (SF-295 CNS) | TGI (PC-3 prostate) | TGI (MDA-MB-231 breast) | TGI (TK-10 renal) | TGI (NCI-H460 lung) | TGI (DU-145 prostate)
78.1 µM: TGI (SK-MEL-2 melanoma)
inactive: GI50 (786-0 renal) 29.2 µM | GI50 (SF-295 CNS) 24 µM | GI50 (SK-MEL-2 melanoma) 30.1 µM | GI50 (PC-3 prostate) 31.3 µM | GI50 (MDA-MB-231 breast) 83.4 µM | GI50 (TK-10 renal) 38.1 µM | GI50 (NCI-H460 lung) 32.4 µM | GI50 (DU-145 prostate) 51.9 µM

C(=Nc1nc(SCc2ccccc2)nc2[nH]ncc12)c1cccs1
inactive: GI50 (786-0 renal) 79.7 µM | GI50 (SF-295 CNS) > 100 µM | GI50 (SK-MEL-2 melanoma) 77.4 µM | GI50 (PC-3 prostate) 32.6 µM | GI50 (MDA-MB-231 breast) 37.3 µM | GI50 (TK-10 renal) 44.3 µM | GI50 (NCI-H460 lung) 33.2 µM | GI50 (DU-145 prostate) 43 µM
> 100 µM: TGI (786-0 renal) | TGI (SF-295 CNS) | TGI (SK-MEL-2 melanoma) | TGI (PC-3 prostate) | TGI (MDA-MB-231 breast) | TGI (TK-10 renal) | TGI (NCI-H460 lung) | TGI (DU-145 prostate)

COc1ccccc1Oc1nccc(-c2c(-c3ccc(F)cc3)ncn2C2CCNCC2)n1
inactive: GI50 (786-0 renal) > 25 µM | GI50 (SF-295 CNS) 17.5 µM | GI50 (SK-MEL-2 melanoma) > 25 µM | GI50 (PC-3 prostate) > 20.9 µM | GI50 (MDA-MB-231 breast) 14.5 µM | GI50 (TK-10 renal) > 25 µM | GI50 (NCI-H460 lung) > 25 µM | GI50 (DU-145 prostate) > 25 µM
> 25 µM: TGI (786-0 renal) | TGI (SF-295 CNS) | TGI (SK-MEL-2 melanoma) | TGI (PC-3 prostate) | TGI (MDA-MB-231 breast) | TGI (TK-10 renal) | TGI (NCI-H460 lung) | TGI (DU-145 prostate)

O=C(Nc1ccc(OC(F)(F)Cl)cc1)c1cnc(N2CC[C@@H](O)C2)c(-c2ccn[nH]2)c1
inactive: GI50 (786-0 renal) 15 µM | GI50 (SF-295 CNS) 10.6 µM | GI50 (SK-MEL-2 melanoma) 12.9 µM | GI50 (PC-3 prostate) 16.3 µM | GI50 (MDA-MB-231 breast) 4.73 µM | GI50 (NCI-H460 lung) 10.1 µM | GI50 (DU-145 prostate) 13.2 µM
26 µM: TGI (SF-295 CNS)
43.3 µM: TGI (DU-145 prostate)
29.5 µM: TGI (SK-MEL-2 melanoma)
32.8 µM: TGI (786-0 renal)
48.4 µM: TGI (PC-3 prostate)
25.4 µM: TGI (NCI-H460 lung)
21.5 µM: TGI (MDA-MB-231 breast)

O=C(O)CN(CCN(CC(=O)O)CC(=O)O)CC(=O)O.[Mn+2]
inactive: GI50 (786-0 renal) > 100 µM | GI50 (SF-295 CNS) > 100 µM | GI50 (SK-MEL-2 melanoma) > 100 µM | GI50 (PC-3 prostate) > 100 µM | GI50 (MDA-MB-231 breast) > 100 µM | GI50 (TK-10 renal) > 100 µM | GI50 (NCI-H460 lung) > 100 µM | GI50 (DU-145 prostate) > 100 µM
> 100 µM: TGI (786-0 renal) | TGI (SF-295 CNS) | TGI (SK-MEL-2 melanoma) | TGI (PC-3 prostate) | TGI (MDA-MB-231 breast) | TGI (TK-10 renal) | TGI (NCI-H460 lung) | TGI (DU-145 prostate)

CCCCCCCCCCCCCCNC(=O)Nc1ccc(Cl)c(Cl)c1
7.64 µM: TGI (MDA-MB-231 breast)
> 24.8 µM: TGI (SF-295 CNS)
7.4 µM: TGI (TK-10 renal)
> 100 µM: TGI (NCI-H460 lung) | TGI (DU-145 prostate)
inactive: GI50 (786-0 renal) 2.79 µM | GI50 (SF-295 CNS) 2.6 µM | GI50 (SK-MEL-2 melanoma) 1.93 µM | GI50 (PC-3 prostate) 2.67 µM | GI50 (MDA-MB-231 breast) 2.56 µM | GI50 (TK-10 renal) 2.34 µM | GI50 (NCI-H460 lung) 3.4 µM | GI50 (DU-145 prostate) 3.59 µM
> 23.4 µM: TGI (786-0 renal)
5.69 µM: TGI (SK-MEL-2 melanoma)
> 37.1 µM: TGI (PC-3 prostate)
